Source: US6147100A, “Pyrrolidine derivatives having phospholipase A2 inhibitory activity” (Shionogi & Co., Ltd., priority 1997, dated 2000)

Biological target: T1, cPLA2 (Homo sapiens, UniProt P47712)
T1 sequence (P47712 1-749): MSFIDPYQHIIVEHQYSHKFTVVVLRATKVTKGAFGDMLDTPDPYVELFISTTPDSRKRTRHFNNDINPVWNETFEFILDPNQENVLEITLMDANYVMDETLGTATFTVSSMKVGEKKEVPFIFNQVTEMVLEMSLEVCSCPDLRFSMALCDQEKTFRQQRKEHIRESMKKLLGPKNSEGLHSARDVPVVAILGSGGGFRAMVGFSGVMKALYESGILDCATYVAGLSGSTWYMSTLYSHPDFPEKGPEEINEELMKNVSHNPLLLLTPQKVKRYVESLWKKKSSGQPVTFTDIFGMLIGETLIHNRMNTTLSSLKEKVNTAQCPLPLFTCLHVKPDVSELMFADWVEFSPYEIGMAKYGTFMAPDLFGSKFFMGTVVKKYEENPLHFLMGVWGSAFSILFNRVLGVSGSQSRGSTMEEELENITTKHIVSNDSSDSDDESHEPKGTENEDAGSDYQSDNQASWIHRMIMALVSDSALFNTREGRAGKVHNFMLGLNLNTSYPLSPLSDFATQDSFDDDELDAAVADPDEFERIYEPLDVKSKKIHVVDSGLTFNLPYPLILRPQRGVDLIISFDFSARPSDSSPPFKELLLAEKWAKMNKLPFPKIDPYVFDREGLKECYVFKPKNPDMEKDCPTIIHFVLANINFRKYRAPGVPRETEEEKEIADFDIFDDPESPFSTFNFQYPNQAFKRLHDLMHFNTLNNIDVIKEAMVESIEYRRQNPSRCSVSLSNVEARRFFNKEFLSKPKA
Assay: cPLA2 Inhibitory Activity
Assay type: biochemical
Details: 1-palmitoyl-2-[14C]-arachidonoyl-sn-glycero-3-phosphocholine 2.5 μM, sn-1,2-dioleoylglycerol 1.25 μM; pH 7.5, 15 min at 37° C.
Method: Test Example 1 cPLA2 Inhibitory Activity The compounds of the present invention were tested for the cPLA2 inhibitory activity according to the method disclosed in […]. Roberts, […], and J. E. Putnam, J. Biol. Chem., 1991, 266, 5268-5272 as outlined below. […] The reaction mixture includes 50 mM HEPES buffer (pH 7.5), 1 mM calcium chloride, 150 mM sodium chloride, 0.1 mg/ml bovine serum albumin, and 1.7 mM dithiothreitol. To the reaction mixture was added the compound of the present invention and the substrate solution. The reaction was allowed to start by adding an enzyme and continued for 15 min at 37° C. The fatty acids released by the reaction were extracted by the method described in V. P. Dole, and H. Meinertz, J. Biol. Chem., 1960, 235, 2595-2599 and its radiation activity was measured on a liquid scintillation counter. Control was obtained by conducting the experiment in the same manner except that a compound of the present invention was not added.

IC50 [nM] | Compound
2800 | CN(C(=O)[C@@H]1C[C@@H](OCc2ccccc2-c2ccccc2)CN1C(=O)c1ccccc1C(=O)c1ccc(F)cc1F)c1ccc(/C=C2\SC(=S)NC2=O)cc1 [Compound G-12]
150 | O=C1NC(=O)/C(=C/c2ccc(C(=O)NC[C@@H]3C[C@@H](Oc4ccccc4-c4cccnc4)CN3C(=O)c3ccccc3C(=O)c3ccc(F)cc3)cc2)S1 [Compound A-105]
24000 | O=C1NC(=O)/C(=C/c2ccc(C(=O)NC[C@@H]3C[C@@H](OCc4ccccc4-c4ccccc4)CN3C(=O)/C=C\C(=O)c3ccccc3)cc2)S1 [Compound A-8]
5000 | O=C1NC(=O)/C(=C/c2ccc(C(=O)NC[C@@H]3C[C@@H](OCc4ccccc4-c4ccccc4)CN3C(=O)CCC(=O)c3ccccc3)cc2)S1 [Compound A-7]
2000 | O=C1NC(=O)/C(=C/c2ccc(C(=O)NC[C@@H]3C[C@@H](NC(=O)c4ccccc4-c4ccccc4)CN3C(=O)c3ccccc3C(=O)c3ccc(F)cc3)cc2)S1 [Compound M-16]
69 | CCN(Cc1ccccc1-c1ccccc1)[C@@H]1C[C@@H](C(=O)Nc2ccc(/C=C3\SC(=O)NC3=O)cc2)N(C(=O)c2ccccc2C(=O)c2ccc(F)cc2)C1 [Compound N-4]
2800 | CC(=O)N(Cc1ccc(/C=C2\SC(=O)NC2=O)cc1)C[C@@H]1C[C@@H](OCc2ccccc2-c2ccccc2)CN1C(=O)c1ccccc1C(=O)c1ccc(F)cc1 [Compound G-7]
24 | CC(C)Cc1cccc(-c2ccccc2)c1O[C@@H]1C[C@@H](CNC(=O)c2ccc(/C=C3\SC(=O)NC3=O)cc2)N(C(=O)c2ccccc2C(=O)c2ccc(F)cc2)C1 [Compound A-124]
2400 | CN(C(=O)[C@@H]1C[C@@H](OCc2ccccc2-c2ccccc2)CN1C(=O)c1ccccc1C(=O)c1ccc(F)cc1)c1ccc(/C=C2\SC(=O)NC2=O)cc1 [Compound G-10]
5600 | CN(C(=O)C[C@@H]1C[C@@H](OCc2ccccc2-c2ccccc2)CN1C(=O)c1ccccc1C(=O)c1ccc(F)cc1)c1ccc(/C=C2\SC(=O)NC2=O)cc1 [Compound G-13]
14000 | O=C1NC(=O)C(=CC2CCN(C(=O)[C@@H]3C[C@@H](OCc4ccccc4-c4ccccc4)CN3C(=O)c3ccccc3C(=O)c3ccc(F)cc3)CC2)S1 [Compound B-9]
140 | CC(C)N(Cc1ccccc1)[C@@H]1C[C@@H](CNC(=O)c2ccc(/C=C3\SC(=S)NC3=O)cc2)N(C(=O)c2ccccc2C(=O)c2ccc(F)cc2)C1 [Compound M-4]
8600 | O=C1NC(=O)/C(=C/C2CCN(C(=O)[C@@H]3C[C@@H](SCc4ccccc4-c4ccccc4)CN3C(=O)c3ccccc3C(=O)c3ccc(F)cc3)CC2)S1 [Compound J-5]
4700 | O=C1NC(=O)/C(=C/c2ccc(C(=O)NCC[C@@H]3C[C@@H](OCc4ccccc4-c4ccccc4)CN3C(=O)c3ccccc3C(=O)c3ccc(F)cc3)cc2)S1 [Compound F-2]
2200 | O=C1NC(=O)/C(=C/c2ccc(C(=O)NC[C@@H]3C[C@@H](OCc4ccccc4-c4ccccc4)CN3C(=O)c3ccccc3C(=O)c3ccc(F)cc3)o2)S1 [Compound A-64]
180 | O=C1NC(=O)C(CCCc2ccc(C(=O)NC[C@@H]3C[C@@H](OCc4ccccc4-c4ccccc4)CN3C(=O)c3ccccc3C(=O)c3ccc(F)cc3)cc2)S1 (some centres unmarked) [Compound A-51]
320 | O=C1NC(=S)S/C1=C\c1ccc(/C=C\C[C@@H]2C[C@@H](OCc3ccccc3-c3ccccc3)CN2C(=O)c2ccccc2C(=O)c2ccc(F)cc2)cc1 [Compound E-11]
20 | CC(C)c1cccc(-c2cccc3ccccc23)c1O[C@@H]1C[C@@H](CNC(=O)c2ccc(/C=C3\SC(=O)NC3=O)cc2)N(C(=O)c2ccccc2C(=O)c2ccc(F)cc2)C1 [Compound A-114]
4000 | CN(C(=O)[C@@H]1C[C@@H](OCc2ccccc2-c2ccccc2)CN1C(=O)c1ccccc1C(=O)c1ccc(F)cc1)c1ccc(/C=C2\SC(=S)NC2=O)cc1 [Compound G-11]
3.1 | CC(C)CN(Cc1ccccc1-c1ccccc1)[C@@H]1C[C@@H](CNC(=O)/C=C/c2ccc(/C=C3\SC(=O)NC3=O)cc2)N(C(=O)c2ccccc2C(=O)c2ccc(F)cc2)C1 [Compound M-19]
10000 | O=C1NC(=S)SC1=C[C@@H]1C[C@@H](OCc2ccccc2-c2ccccc2)CN1C(=O)c1ccccc1C(=O)c1ccc(F)cc1 [Compound H-1]

IC50 [nM] | Compound
1400 | O=C1NC(=O)/C(=C/c2ccc(/C=C/[C@@H]3C[C@@H](OCc4ccccc4-c4ccccc4)CN3C(=O)c3ccccc3C(=O)c3ccc(F)cc3)s2)S1 [Compound E-8]
6.6 | CC(C)Cc1cccc(-c2cccc3ccccc23)c1O[C@@H]1C[C@@H](CNC(=O)c2ccc(/C=C3\SC(=O)NC3=O)cc2)N(C(=O)c2ccccc2C(=O)c2ccc(F)cc2)C1 [Compound A-125]
140 | O=C1NC(=O)/C(=C/c2ccc(C(=O)NC[C@@H]3C[C@@H](OCc4ccccc4-c4ccccc4)CN3C(=O)c3ccccc3C(=O)c3ccc(F)cc3)cc2)O1 [Compound A-54]
200 | Cc1c(CO[C@@H]2C[C@@H](CNC(=O)c3ccc(/C=C4\SC(=O)NC4=O)cc3)N(C(=O)c3ccccc3C(=O)c3ccc(F)cc3)C2)cccc1-c1ccccc1 [Compound A-31]
1500 | O=C1NC(=O)/C(=C/c2ccc(/C=C\[C@@H]3C[C@@H](OCc4ccccc4-c4ccccc4)CN3C(=O)c3ccccc3C(=O)c3ccc(F)cc3)s2)S1 [Compound E-6]
5.5 | CC(C)Cc1cccc(-c2ccccc2C(C)C)c1O[C@@H]1C[C@@H](CNC(=O)c2ccc(/C=C3\SC(=O)NC3=O)cc2)N(C(=O)c2ccccc2C(=O)c2ccc(F)cc2)C1 [Compound A-126]
790 | O=C1NC(=S)S/C1=C\c1ccc(CCC[C@@H]2C[C@@H](OCc3ccccc3-c3ccccc3)CN2C(=O)c2ccccc2C(=O)c2ccc(F)cc2)cc1 [Compound E-10]
77 | O=C1NC(=S)S/C1=C\c1ccc(/C=C/C[C@@H]2C[C@@H](OCc3ccccc3-c3ccccc3)CN2C(=O)c2ccccc2C(=O)c2ccc(F)cc2)cc1 [Compound E-13]
240 | CCN(Cc1ccccc1-c1ccccc1)[C@@H]1C[C@@H](C(=O)Nc2ccc(/C=C3\SC(=S)NC3=O)cc2)N(C(=O)c2ccccc2C(=O)c2ccc(F)cc2)C1 [Compound N-5]
65 | CC(C)Oc1ccccc1-c1ccccc1O[C@@H]1C[C@@H](CNC(=O)c2ccc(/C=C3\SC(=O)NC3=O)cc2)N(C(=O)c2ccccc2C(=O)c2ccc(F)cc2)C1 [Compound A-121]
1100 | O=C1NC(=S)S/C1=C\c1ccc(CN(C[C@@H]2C[C@@H](OCc3ccccc3-c3ccccc3)CN2C(=O)c2ccccc2C(=O)c2ccc(F)cc2)C(=O)c2ccccc2)cc1 [Compound G-8]
5800 | CC(=O)Nc1ccccc1C(=O)c1ccccc1C(=O)N1C[C@H](OCc2ccccc2-c2ccccc2)C[C@H]1CNC(=O)c1ccc(/C=C2\SC(=O)NC2=O)cc1 [Compound A-24]
13000 | O=C1NC(=S)S/C1=C\C1CCN(C(=O)[C@@H]2C[C@@H](SCc3ccccc3-c3ccccc3)CN2C(=O)c2ccccc2C(=O)c2ccc(F)cc2)CC1 [Compound J-6]
5400 | CN(Cc1ccc(/C=C2\SC(=S)NC2=O)cc1)C[C@@H]1C[C@@H](OCc2ccccc2-c2ccccc2)CN1C(=O)c1ccccc1C(=O)c1ccc(F)cc1 [Compound G-2]
670 | O=C(COc1ccc(/C=C2\SC(=O)NC2=O)cc1)NC[C@@H]1C[C@@H](OCc2ccccc2-c2ccccc2)CN1C(=O)c1ccccc1C(=O)c1ccc(F)cc1 [Compound A-50]
5500 | C/C(=C/C(=O)c1ccccc1)C(=O)N1C[C@H](OCc2ccccc2-c2ccccc2)C[C@H]1CNC(=O)c1ccc(/C=C2\SC(=O)NC2=O)cc1 [Compound A-9]
210 | O=C(/C=C/C#C/C=C1\SC(=O)NC1=O)NC[C@@H]1C[C@@H](OCc2ccccc2-c2ccccc2)CN1C(=O)c1ccccc1C(=O)c1ccc(F)cc1 [Compound A-66]
1600 | O=C1NC(=S)S/C1=C\c1ccc(/C=C/[C@@H]2C[C@@H](OCc3ccccc3-c3ccccc3)CN2C(=O)c2ccccc2C(=O)c2ccc(F)cc2)s1 [Compound E-7]
1500 | CN(Cc1ccccc1)[C@@H]1C[C@@H](CNC(=O)c2ccc(/C=C3\SC(=O)NC3=O)cc2)N(C(=O)c2ccccc2C(=O)c2ccc(F)cc2)C1 [Compound M-1]
1400 | CN(Cc1ccccc1)[C@@H]1C[C@@H](CNC(=O)c2ccc(/C=C3\SC(=S)NC3=O)cc2)N(C(=O)c2ccccc2C(=O)c2ccc(F)cc2)C1 [Compound M-2]
